Source: ChEMBL document CHEMBL4251612, “Naturally occurring Diels-Alder-type adducts from Morus nigra as potent inhibitors of Mycobacterium tuberculosis protein tyrosine phosphatase B” (Eur J Med Chem, 2018)
Values after ≈ are worked out from the molar mass of the structure shown. Active and inactive are the calls of the source. No cut-off for these calls is given here.

Tests used:
[1] = molecular target: T1, Phosphotyrosine protein phosphatase (Mycobacterium tuberculosis, UniProt A0A045ISB3); test: Inhibition of Mycobacterium tuberculosis PtpB using p-nitrophenyl phosphate as substrate preincubated for 10 mins followed by substrate addition measured every minute for 10 mins by UV-VIS spectrophotometric analysis
T1 sequence (A0A045ISB3 whole entry): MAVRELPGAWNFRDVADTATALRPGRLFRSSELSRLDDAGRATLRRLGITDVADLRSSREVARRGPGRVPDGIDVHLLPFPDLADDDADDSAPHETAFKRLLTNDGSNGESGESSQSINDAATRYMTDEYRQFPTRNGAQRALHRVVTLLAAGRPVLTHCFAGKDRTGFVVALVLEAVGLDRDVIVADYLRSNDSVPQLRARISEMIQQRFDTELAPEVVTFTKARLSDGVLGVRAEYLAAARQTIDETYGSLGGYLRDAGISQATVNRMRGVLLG

[2] = molecular target: T2, Low molecular weight protein-tyrosine phosphatase A (Mycobacterium tuberculosis, UniProt P9WIA1); test: Inhibition of Mycobacterium tuberculosis PtpA using p-nitrophenyl phosphate as substrate preincubated for 10 mins followed by substrate addition measured every minute for 10 mins by UV-VIS spectrophotometric analysis
T2 sequence (P9WIA1 whole entry): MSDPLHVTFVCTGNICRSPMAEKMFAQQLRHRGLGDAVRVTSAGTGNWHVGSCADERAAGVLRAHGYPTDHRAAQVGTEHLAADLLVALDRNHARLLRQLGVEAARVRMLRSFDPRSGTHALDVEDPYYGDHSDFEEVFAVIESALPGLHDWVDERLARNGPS

[3] = molecular target: T3, Tyrosine-protein phosphatase non-receptor type 1 (Homo sapiens, UniProt P18031); test: Inhibition of human PTP1B using p-nitrophenyl phosphate as substrate preincubated for 10 mins followed by substrate addition measured every minute for 10 mins by UV-VIS spectrophotometric analysis
T3 sequence (P18031 whole entry): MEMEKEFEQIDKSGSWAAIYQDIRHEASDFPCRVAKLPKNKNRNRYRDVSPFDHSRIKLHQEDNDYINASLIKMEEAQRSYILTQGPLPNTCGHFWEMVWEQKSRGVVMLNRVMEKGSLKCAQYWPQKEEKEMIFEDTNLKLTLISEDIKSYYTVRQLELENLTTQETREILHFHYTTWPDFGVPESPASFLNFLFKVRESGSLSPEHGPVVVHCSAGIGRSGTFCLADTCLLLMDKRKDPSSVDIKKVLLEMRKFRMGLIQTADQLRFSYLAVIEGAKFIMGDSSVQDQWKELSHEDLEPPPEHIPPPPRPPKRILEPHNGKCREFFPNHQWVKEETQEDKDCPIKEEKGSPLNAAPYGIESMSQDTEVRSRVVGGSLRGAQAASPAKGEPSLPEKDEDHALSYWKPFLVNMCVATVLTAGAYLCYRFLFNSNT

[4] = molecular target: T4, Tyrosine-protein phosphatase non-receptor type 22 (Homo sapiens, UniProt Q9Y2R2); test: Inhibition of LYP (unknown origin) using p-nitrophenyl phosphate as substrate preincubated for 10 mins followed by substrate addition measured every minute for 10 mins by UV-VIS spectrophotometric analysis
T4 sequence (Q9Y2R2 whole entry): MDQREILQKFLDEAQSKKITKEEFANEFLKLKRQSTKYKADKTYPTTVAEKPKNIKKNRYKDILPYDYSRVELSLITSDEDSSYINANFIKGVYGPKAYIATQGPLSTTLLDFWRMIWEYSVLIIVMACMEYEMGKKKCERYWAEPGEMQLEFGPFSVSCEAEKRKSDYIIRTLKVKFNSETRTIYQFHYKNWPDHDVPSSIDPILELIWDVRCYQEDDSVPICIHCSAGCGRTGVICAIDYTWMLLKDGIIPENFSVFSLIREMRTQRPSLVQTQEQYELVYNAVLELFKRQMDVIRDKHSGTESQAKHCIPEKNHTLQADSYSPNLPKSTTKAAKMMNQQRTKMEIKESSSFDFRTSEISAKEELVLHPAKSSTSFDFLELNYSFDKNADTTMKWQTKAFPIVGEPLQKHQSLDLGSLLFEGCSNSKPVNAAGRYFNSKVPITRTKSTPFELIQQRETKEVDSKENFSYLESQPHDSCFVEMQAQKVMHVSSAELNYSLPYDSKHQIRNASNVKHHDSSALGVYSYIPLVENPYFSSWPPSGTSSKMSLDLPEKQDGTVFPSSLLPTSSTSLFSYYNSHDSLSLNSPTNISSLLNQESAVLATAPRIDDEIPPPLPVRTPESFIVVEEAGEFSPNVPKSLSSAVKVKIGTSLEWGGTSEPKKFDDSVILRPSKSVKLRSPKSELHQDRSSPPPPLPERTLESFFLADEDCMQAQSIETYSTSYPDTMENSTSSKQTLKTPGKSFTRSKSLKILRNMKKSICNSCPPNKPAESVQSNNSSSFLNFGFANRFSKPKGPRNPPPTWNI

[5] = molecular target: T5, Tyrosine-protein phosphatase non-receptor type 12 (Homo sapiens, UniProt Q05209); test: Inhibition of PTP-PEST (unknown origin) using p-nitrophenyl phosphate as substrate preincubated for 10 mins followed by substrate addition measured every minute for 10 mins by UV-VIS spectrophotometric analysis
T5 sequence (Q05209 whole entry): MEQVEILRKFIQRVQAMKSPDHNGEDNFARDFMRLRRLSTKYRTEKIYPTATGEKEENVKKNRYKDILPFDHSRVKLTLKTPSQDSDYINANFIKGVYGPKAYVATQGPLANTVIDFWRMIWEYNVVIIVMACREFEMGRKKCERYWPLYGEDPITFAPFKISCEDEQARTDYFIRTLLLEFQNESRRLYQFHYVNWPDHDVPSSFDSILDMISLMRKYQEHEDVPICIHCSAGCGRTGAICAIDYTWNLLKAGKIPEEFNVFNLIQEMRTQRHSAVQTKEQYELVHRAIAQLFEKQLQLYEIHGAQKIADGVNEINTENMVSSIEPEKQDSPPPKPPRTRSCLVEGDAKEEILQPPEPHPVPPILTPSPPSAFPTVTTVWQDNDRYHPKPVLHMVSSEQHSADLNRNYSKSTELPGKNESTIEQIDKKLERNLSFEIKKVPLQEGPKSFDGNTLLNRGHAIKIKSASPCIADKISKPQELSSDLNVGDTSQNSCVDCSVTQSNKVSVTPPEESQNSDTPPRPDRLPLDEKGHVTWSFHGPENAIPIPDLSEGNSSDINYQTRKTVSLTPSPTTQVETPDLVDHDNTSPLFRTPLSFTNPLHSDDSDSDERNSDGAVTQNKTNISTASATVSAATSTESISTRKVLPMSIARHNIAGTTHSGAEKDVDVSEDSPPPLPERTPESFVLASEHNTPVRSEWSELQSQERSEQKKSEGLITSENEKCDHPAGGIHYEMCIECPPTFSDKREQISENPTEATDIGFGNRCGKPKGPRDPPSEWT

[6] = molecular target: T6, Phosphotyrosine protein phosphatase (Mycobacterium tuberculosis) (UniProt A0A045ISB3); test: Competitive inhibition of Mycobacterium tuberculosis PtpB using p-nitrophenyl phosphate as substrate up to 0.3 uM preincubated for 10 mins followed by substrate addition measured every minute for 10 mins by Michaelis-Menten plot analysis
T6 sequence (whole entry): T1 sequence (A0A045ISB3 whole entry)

[7] = molecular target: T1, Phosphotyrosine protein phosphatase; test: Inhibition of Mycobacterium tuberculosis PtpB using p-nitrophenyl phosphate as substrate preincubated for 10 mins followed by substrate addition measured every minute for 10 mins by Michaelis-Menten plot analysis
[8] = molecular target: T6, Phosphotyrosine protein phosphatase (Mycobacterium tuberculosis); test: Reversible inhibition of Mycobacterium tuberculosis PtpB using p-nitrophenyl phosphate as substrate assessed as enzyme recovery at 10 times IC50 preincubated for 10 mins followed by 100-fold dilution; design: scale not given: the % may be the effect or the level left
[9] = molecular target: T6, Phosphotyrosine protein phosphatase (Mycobacterium tuberculosis); test: Binding affinity to Mycobacterium tuberculosis PtpB assessed as Stern-Volmer quenching constant by UV-VIS spectrophotometric analysis
[10] = molecular target: T1, Phosphotyrosine protein phosphatase; test: Binding affinity to Mycobacterium tuberculosis PtpB by UV-VIS spectrophotometric analysis
[11] = system: Mycobacterium tuberculosis; test: Antitubercular activity against Mycobacterium tuberculosis H37Ra ATCC 25177 after 7 days by resazurin microtiter assay; type: functional; conditions: H37Ra ATCC 25177, 168 h
[12] = Cytotoxicity against human THP1 cells after 72 hrs by MTT assay; type: cell-based; conditions: THP-1 cells
[13] = system: Mycobacterium tuberculosis; test: Antitubercular activity against Mycobacterium tuberculosis H37Ra ATCC 25177 infected in human THP1 cells assessed as reduction in CFU at 13.2 uM after 72 hrs; type: functional, organism-based
[14] = molecular target: T6, Phosphotyrosine protein phosphatase (Mycobacterium tuberculosis); test: Time independent inhibition of Mycobacterium tuberculosis PtpB at 0.2 uM pre-incubated for 0 to 10 mins before p-nitrophenyl phosphate substrate addition
[15] = molecular target: T6, Phosphotyrosine protein phosphatase (Mycobacterium tuberculosis); test: Binding affinity to Mycobacterium tuberculosis PtpB assessed as fluorescence quenching at 0.1 to 3.8 uM by spectropolarimetry
[16] = molecular target: T6, Phosphotyrosine protein phosphatase (Mycobacterium tuberculosis); test: Binding affinity to Mycobacterium tuberculosis PtpB assessed as binding constant by fluorescence based assay
[17] = molecular target: T1, Phosphotyrosine protein phosphatase; test: Binding affinity to Mycobacterium tuberculosis PtpB by fluorescence based assay
[18] = molecular target: T6, Phosphotyrosine protein phosphatase (Mycobacterium tuberculosis); test: Binding affinity to Mycobacterium tuberculosis PtpB assessed as sequence coverage level at 100 uM preincubated for 10 mins before trypsin addition by mass spectrometry based peptide mass fingerprint assay (reference value: 92%)
[19] = molecular target: T6, Phosphotyrosine protein phosphatase (Mycobacterium tuberculosis); test: Binding affinity to Mycobacterium tuberculosis PtpB assessed as protection against proteolytic cleavage at 100 to 400 uM preincubated for 10 mins before trypsin addition by mass spectrometry

| Structure (SMILES) | IC50 [1] [µM] | IC50 [2] [µM] | IC50 [3] [µM] | IC50 [4] [µM] | IC50 [5] [µM] | inhibition [6] | Ki [7] [µM] | Activity [8] [%] | Ka [9] [×10⁶ /M] | Kd [10] [µM] | MIC [11] [µg/mL] | CC50 at 72 h [12] [µg/mL] | Activity [13] | inhibition [14] | Activity [15] | Ka [16] [×10⁶ /M] | Kd [17] [µM] | Activity [18] [%] | Activity [19] |
| --- | --- | --- | --- | --- | --- | --- | --- | --- | --- | --- | --- | --- | --- | --- | --- | --- | --- | --- | --- |
| CC(C)=CCc1c(-c2ccc(O)cc2O)oc2c3c(cc(O)c2c1=O)OC(C)(C)C=C3 [MORUSIN] | 5.26 | 4.65 | 10.3 | 15 | > 100 | – | – | – | – | – | – | – | – | – | – | – | – | – | – |
| O=c1cc(-c2ccc(O)cc2O)oc2cc(O)cc(O)c12 [NORARTOCARPETIN] | 1.2 | 12 | 5.18 | 30.3 | 20.9 | – | – | – | – | – | – | – | – | – | – | – | – | – | – |
| Oc1cc(O)cc(/C=C/c2ccc(O)cc2O)c1 [OXYRESVERATROL] | – | 67.2 | 27.1 | 31.5 | > 100 | – | – | – | – | – | – | – | – | – | – | – | – | – | – |
| CC(C)=CCc1c(O)ccc(C(=O)[C@@H]2[C@@H](c3ccc(O)cc3O)CC(C)=C[C@H]2c2c(O)cc(O)c3c(=O)c(CC=C(C)C)c(-c4ccc(O)cc4O)oc23)c1O | 0.36 | 1.49 | 2.54 | 11.8 | 5.22 | Active | 0.2 | 40 | 1 | 1 | 32 (≈ 42.1 µM) | 20.2 (≈ 26.6 µM) | inactive | Active | Active | 1.2 | 0.85 | 93 | Active |
